In one data set the test system is rabbit platelet. Kind of data set: ADP-induced aggregation in rabbit platelets (AG-II Aggregometer). The format is cell-based. More on the design: inhibition: dose or concentration left out as unconfirmed. The following applies: Oryctolagus cuniculus, Platelet, read-out: Inhibition effect on ADP-induced aggregation in rabbit platelet. The method in brief:
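Rabbit citrated PRP, diluted with PPP to 300,000/mm^3 platelets for ADP or 450,000/mm^3 for collagen, was preincubated with compound 1 min at 37° C. before inducer was added. ADP at 7.5×10^-5 M or collagen supernatant in Auren Beronal buffer pH 7.35; transmittance change recorded, percent inhibition derived.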

Data set [1] in a line: Acute toxicity test, oral administration to mice. The format is in vivo. The following applies: mouse, in vivo, Male mice. The protocol: The test compounds were administered orally to the mice and LD50 (mg/kg) of the compounds was determined.

Regarding `CC(=O)OC1CCC(N(C)C(=O)CCCOc2ccc3[nH]c(=O)ccc3c2)CC1` (stereo not drawn) [compound 3, 6-{3-[N-Methyl-N-(4-acetyloxycyclohexyl)aminocarbonyl]propoxy}carbostyril], the inhibition at 100 µM (stock) in the data set on rabbit platelet (10^-4 mole) was 91.5%. In the data set on rabbit platelet (10^-5 mole), the inhibition at 10 µM (stock) turned out to be 75%. The inhibition at 1 µM (stock) in the data set with rabbit platelet (10^-6 mole) is 20.8%. Besides, the LD50 in data set [1] was above 1000 mg/kg.

As to `CN(C(=O)CCCOc1ccc2[nH]c(=O)ccc2c1)C1CCCCC1` [compound 16, 6-[3-(N-Methyl-N-cyclohexylaminocarbonyl)propoxy]carbostyril], the inhibition in the data set with rabbit platelet was 91.7%. In addition, the LD50 in data set [1] was above 1000 mg/kg.

Broadly, the inhibition is the relative decrease from the control value, in per cent. A word on the LD50: it is the dose expected to kill half of the subjects tested.
